Experiment: HILIC, Waters ACQUITY UPLC BEH Amide, 100 × 2.1 mm, 1.7 µm; A: water + 0.125% formic acid + 10 mM ammonium formate; B: 5% water + 95% acetonitrile + 0.125% formic acid + 10 mM ammonium formate; gradient (min/%B) 0/100 2/100 7.7/70 9.5/40 10.25/30 12.75/100 17/100
Details: stereoisomer not certain

Row | Compound | LC retention time [min]
1 | CCC(C)n1ncn(-c2ccc(N3CCN(c4ccc(OCC5COC(Cn6cncn6)(c6ccc(Cl)cc6Cl)O5)cc4)CC3)cc2)c1=O (stereo unspecified) [Itraconzaole] | 0.97
2 | CC(=O)NC(Cc1ccccc1)C(=O)O (stereo unspecified) [N-Acetylphenylalanine] | 2.61
3 | CC1OC(Oc2c(-c3ccc(O)c(O)c3)oc3cc(O)cc(O)c3c2=O)C(O)C(O)C1O (stereo unspecified) [Quercetin-3-ramnoside] | 4.7
4 | Nc1ncnc2c1ncn2C1OC(COP(=O)(O)O)C(O)C1O (stereo unspecified) [Adenosine 5'-monophosphate] | 8.88
5 | CC(C)CCCC(C)C1CCC2C3C(O)C=C4CC(O)CCC4(C)C3CCC12C (stereo not drawn) [5-Cholesten-3-beta-7-alpha-diol] | 3.36
6 | CCC1(O)CC2CN(CCc3c([nH]c4ccccc34)C(C(=O)OC)(c3cc4c(cc3OC)N(C)C3C(O)(C(N)=O)C(O)C5(CC)C=CCN6CCC43C65)C2)C1 (stereo unspecified) [Vindesine] | 5.76
7 | CN(C)CCC(c1ccc(Br)cc1)c1ccccn1 (stereo unspecified) [Dexbrompheniramine] | 2.56
8 | NC(Cc1c[nH]c2ccccc12)C(=O)O (stereo unspecified) [Tryptophan] | 6.92
9 | COC1C(CO)OC(n2ccc(N)nc2=O)C1O (stereo unspecified) [3'-O-Methylcytidine] | 5.09
10 | O=C(O)c1ccnc2ccccc12 [4-Quinolinecarboxylic acid] | 4.58
11 | NC(N)=NCCCC(N)C(=O)O (stereo unspecified) [Arginine] | 9.53
12 | CN1CCC23c4c5ccc(O)c4OC2C(=O)CCC3(O)C1C5 (stereo unspecified) [Oxymorphone] | 5.5
13 | COc1c2occc2cc2ccc(=O)oc12 [Xanthotoxin] | 1.04
14 | Oc1ccc(C=Cc2cc(O)cc(O)c2)cc1 [Resveratrol] | 1.41
15 | O=C(O)COCCN1CCN(C(c2ccccc2)c2ccc(Cl)cc2)CC1 (stereo unspecified) [Levocetirizine] | 2.9
16 | CC(C)=CC(=O)NCC(=O)O [3-Methylcrotonylglycine] | 2.95
17 | COc1ccc2c3c1OC1CC(O)C=CC31CCN(C)C2 (stereo unspecified) [Galanthamine] | 4.62
18 | Cc1ccc(-c2nc3ccc(C)cn3c2CC(=O)N(C)C)cc1 [Zolpidem] | 1.62
19 | Cc1[nH]c(=O)c(C#N)cc1-c1ccncc1 [Milrinone] | 1.6
20 | COC(=O)C1C(O)CC2CCC1N2C (stereo unspecified) [Ecgonine methylester] | 4.18
21 | CNCCC(Oc1ccccc1C)c1ccccc1 (stereo unspecified) [Atomoxetine] | 2.42
22 | C=Cc1ccccc1 [Styrene] | 8.74
23 | CC(CO)CCNc1ncnc2nc[nH]c12 (stereo unspecified) [Dihydrozeatin] | 2.99

Row | Compound | LC retention time [min]
24 | Cc1cc2c(s1)Nc1ccccc1N=C2N1CCN(C)CC1 [Olanzapine] | 4.56
25 | CC(Cc1ccccc1)(NC(=O)CN)c1ccccc1 (stereo unspecified) [Remacemide] | 4.41
26 | Oc1ccc(C2COc3cc(O)ccc3C2)cc1 (stereo unspecified) [Equol] | 1.19
27 | CCn1cc(C(=O)O)c(=O)c2cc(F)c(N3CCN(C)CC3)cc21 [Pefloxacin] | 3.65
28 | COc1cc2nc(N3CCN(C(=O)C4CCCO4)CC3)nc(N)c2cc1OC (stereo unspecified) [Terazosin] | 4.66
29 | O=C1C(CCC(O)c2ccc(F)cc2)C(c2ccc(O)cc2)N1c1ccc(F)cc1 (stereo unspecified) [Ezetimibe] | 1.03
30 | CC12CCC(=O)C=C1CCC1C2C(O)CC2(C)C1CCC2(O)C(=O)CO (stereo unspecified) [Hydrocortisone] | 2.56
31 | CC(=O)OC1CC(C)(C)C(=C=CC(C)=CC=CC(C)=CC=CC=C(C)C=CC=C(C)C(=O)CC23OC2(C)CC(O)CC3(C)C)C(C)(O)C1 (stereo unspecified) [Fucoxanthin] | 1.07
32 | COCc1c(C(C)C)nc(C(C)C)c(C=CC(O)CC(O)CC(=O)O)c1-c1ccc(F)cc1 (stereo unspecified) [Cerivastatin] | 1.18
33 | Cc1nnc2n1-c1ccc(Cl)cc1C(c1ccccc1Cl)=NC2 [Triazolam] | 1.3
34 | Cc1cccc(Nc2ccncc2S(=O)(=O)NC(=O)NC(C)C)c1 [Torasemide] | 1.45
35 | COc1ccc(CN2CCN(C(c3ccc(F)cc3)c3ccc(F)cc3)CC2)c(OC)c1OC [Lomerizine] | 1.7
36 | O=C(O)C(O)Cc1c[nH]c2ccccc12 (stereo unspecified) [Indolelactic acid] | 2.25
37 | CC(C)C(N)C(=O)O (stereo unspecified) [Valine] | 7.24
38 | COC(=O)CN [Methylglycinate] | 5.29
39 | CSCCC(NC(C)=O)C(=O)O (stereo unspecified) [N-Acetylmethionine] | 3.23
40 | CC(C)CN [Isobutylamine] | 5.04
41 | CC(C)C(=O)NCC(=O)O [N-Isobutyrylglycine] | 3.6
42 | NC(N)=NCC(=O)O [Guanidinoacetic acid] | 8.16
43 | NCC(=O)NC(Cc1ccc(O)cc1)C(=O)O (stereo unspecified) [Gly-Tyr] | 8.07
44 | CN(CCCN1c2ccccc2CCc2ccccc21)CC(=O)c1ccc(Cl)cc1 [Lofepramine] | 1.91
45 | CC1(C)SC2C(N=CN3CCCCCC3)C(=O)N2C1C(=O)O (stereo unspecified) [Mecillinam] | 4.28
46 | CCOC(=O)OC(C)OC1=C(C(=O)Nc2ccccn2)N(C)S(=O)(=O)c2ccccc21 (stereo unspecified) [Ampiroxicam] | 0.95

Row | Compound | LC retention time [min]
47 | NC1CCN(c2cccc(Cl)n2)CC1 | 4.85
48 | Clc1ccc(CON=C(Cn2ccnc2)c2ccc(Cl)cc2Cl)c(Cl)c1 [Oxiconazole] | 1.08
49 | Cc1cn(C2C=CC(CO)O2)c(=O)[nH]c1=O (stereo unspecified) [Stavudine] | 1.62
50 | CC(=O)NO [Acetohydroxamic acid] | 2.94
51 | Cn1cnc2c(ncn2C2OC(CO)C(O)C2O)c1=N (stereo unspecified) [1-Methyladenosine] | 7.46
52 | CN1C(=O)COc2c(C(=O)NC3CN4CCC3CC4)cc(Cl)cc21 (stereo unspecified) [Azasetron] | 4.66
53 | CC(N)C(=O)O (stereo unspecified) [Alanine] | 8.05
54 | CC12CCC(=O)C=C1CCC1C2CCC2(C)C1CCC2(C)O (stereo unspecified) [Methyltestosterone] | 1.04
55 | COCC1=C(C(=O)OC(C)OC(=O)OC(C)C)N2C(=O)C(NC(=O)C(=NOC)c3csc(N)n3)C2SC1 (stereo unspecified) | 1.12
56 | CCOC(=O)C(CCc1ccccc1)NC1CCc2ccccc2N(CC(=O)O)C1=O (stereo unspecified) [Benazepril] | 1.33
57 | O=c1ccn(C2CC(O)C(CO)O2)c(=O)[nH]1 (stereo unspecified) [2-Deoxyuridine] | 2.96
58 | Cc1ccccc1-n1c(C)nc2ccccc2c1=O [Methaqualone] | 1.1
59 | CC(N)C(=O)NC(C)C(=O)O (stereo unspecified) [Ala-Ala] | 8.41
60 | CC(=O)NCCCCCCNC(C)=O | 1.5
61 | CCCCCC=CCC=CCC=CCC=CCCCC(=O)NCCc1ccc(O)c(O)c1 [Arachidonyl dopamine] | 1.14
62 | Cn1c(=N)ccn(C2OC(CO)C(O)C2O)c1=O (stereo unspecified) [3-Methylcytidine] | 6.99
63 | CCOC(=O)C1=C(COCCN)NC(C)=C(C(=O)OC)C1c1ccccc1Cl (stereo unspecified) [Amlodipine] | 4.24
64 | COc1cc(C=CC(=O)O)cc(OC)c1O [Sinapic acid] | 1.41
65 | CC(O)C(O)C1=Nc2c(nc(N)[nH]c2=O)NC1 (stereo unspecified) [7,8-Dihydrobiopterin] | 7.18
66 | CCCc1nc2c(C)cc(-c3nc4ccccc4n3C)cc2n1Cc1ccc(-c2ccccc2C(=O)O)cc1 [Telmisartan] | 1.25
67 | CCCC(=O)O [Butanoic acid] | 10.2
68 | CC12CCC3C(CCC4=CC(=O)CCC43C)C1CCC2=O (stereo unspecified) [Androstenedione] | 1.09
69 | CC(=O)OC1(C(C)=O)CCC2C3C=C(C)C4=CC(=O)CCC4(C)C3CCC21C (stereo unspecified) [Megestrol Acetate] | 0.96

Row | Compound | LC retention time [min]
70 | CCCCN1CCCC1CNC(=O)c1cc(C#N)c2ccccc2c1OC (stereo unspecified) [Nafadotride] | 2.05
71 | O=C1CN=C(c2ccccc2)c2cc(Cl)ccc2N1CC1CC1 [Prazepam] | 1.07
72 | CC(=O)N[C@@H](CCCCN)C(=O)O [N.alpha.-Acetyl-L-lysine] | 8.15
73 | CC(O)C(NC(=O)C(N)CCC(=O)O)C(=O)O (stereo unspecified) [Glu-Thr] | 9.44
74 | COc1ccc2[nH]cc(CCO)c2c1 [5-Methoxytryptophol] | 1.18
75 | CCCSc1ccc2nc(NC(=O)OC)[nH]c2c1 [Albendazole] | 1.22
76 | CC(=O)OCC(N)C(=O)O (stereo unspecified) [O-Acetylserine] | 7.67
77 | O=C(O)CCNC(=O)c1ccc(N=Nc2ccc(O)c(C(=O)O)c2)cc1 [Balsalazide] | 4.85
78 | Oc1cc2ccccc2[nH]1 [2-Indolinone] | 1.36
79 | CCCCCCCCCC=O [Decanal] | 2.17
80 | O=C(C=CC=Cc1ccc2c(c1)OCO2)N1CCCCC1 [Piperine] | 1.1
81 | O=P(O)(O)OCC(O)C(O)C(O)C(O)CO (stereo unspecified) [Sorbitol-6-phosphate] | 9.75
82 | Cn1c(=O)[nH]c2[nH]c(=O)[nH]c2c1=O [1-Methyluric acid] | 2.18
83 | COc1ccc(OC)c(C(O)C(C)N)c1 (stereo unspecified) [Methoxamine] | 4.75
84 | CN(C)CC(=O)O [N,N-Dimethylglycine] | 7.4
85 | COc1ccc2c3c1OC1C(=O)CCC4C(C2)N(C)CCC314 (stereo unspecified) [Hydrocodone] | 3.8
86 | CS(=O)CCC(N)C(=O)O (stereo unspecified) [Methioninesulfoxide] | 8.62
87 | COc1cc(-c2oc3cc(O)cc(O)c3c(=O)c2OC2OC(CO)C(O)C(O)C2O)cc(OC)c1O (stereo unspecified) [Syringetin-3-O-glucoside] | 4.32
88 | Cn1c(=O)c2[nH]cnc2n(C)c1=O [Theophylline] | 1.54
89 | CSCCC(NC=O)C(=O)O (stereo unspecified) [N-Formylmethionine] | 3.93
90 | OCc1c[nH]c2ccccc12 [Indole-3-carbinol] | 1.24
91 | CCNC(C)Cc1ccc2c(c1)OCO2 (stereo unspecified) [3,4-Methylenedioxyethamphetamine] | 2.94
